From patent US20030166007A1, “Chemical proteomics” (MDS Proteomics Inc., priority 2002, published 2003)
Entries after “also recorded” stand apart in the source; their conditions may differ.

Tests used:
[1] = molecular target: T1, Hypoxanthine phosphoribosyltransferase (HPRT) (Homo sapiens, UniProt P00492); experiment: MTX-agarose affinity chromatography of cell lysate, MS identification; type: binding; conditions: HEK 293 lysate, lane 9
T1 construct: endogenous in cells; host or cells: HEK 293
T1 sequence (P00492 1-218): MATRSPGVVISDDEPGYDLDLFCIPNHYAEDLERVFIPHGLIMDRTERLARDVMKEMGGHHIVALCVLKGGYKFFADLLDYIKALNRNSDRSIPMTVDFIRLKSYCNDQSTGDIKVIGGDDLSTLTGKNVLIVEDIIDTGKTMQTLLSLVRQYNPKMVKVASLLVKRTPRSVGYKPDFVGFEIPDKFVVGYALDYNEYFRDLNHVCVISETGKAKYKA
Description: (§1) After incubation for 30 minutes at 4° C. with shaking, the lysates were clarified by centrifugation (27,000×g). In some experiments, cells were lysed using 20 strokes of a Dounce® homogenizer in the absence of detergents. […] While optimizing the protocol, however, several experimental variations were tested on cell lysates including concentration by ammonium sulfate precipitation, or removal of nucleic acid with Streptomycin sulfate. In such cases, the protein sample was desalted using a PD 10 protein-desalting column (Pharmacia), which had been pre-equilibrated in the same buffer (10 mM potassium phosphate pH 7.5)
(§2) Affinity Chromatography: The desalted lysate was loaded onto a column of pre-equilibrated MTX-agarose (Sigma, 50 μL bed volume) or sepharose 4B agarose as a negative control. The lysates were allowed to slowly flow through the matrix under gravity flow. […] Retentates from the microcons were then loaded onto SDS-PAGE 4%-15% gradient mini gels (Bio-Rad). […]
(§3) The peptides were then separated by reverse phase chromatography on C18 resin and directly injected into a mass spectrometer using an automated sample-loading device from 96 well plates. […] The spectra generated were analyzed on a custom-built multi-node server platform (RADARS, ProteoMetrics), which uses two database searching programs, Sonar (ProteoMetrics) and Mascot (Matrix Sciences). […]

[2] = molecular target: T2, Deoxyguanosine kinase (Homo sapiens, UniProt Q16854); experiment: as above; type: binding; conditions: HEK 293 lysate
T2 construct: endogenous in cells; host or cells: HEK 293
T2 sequence (Q16854 40-277): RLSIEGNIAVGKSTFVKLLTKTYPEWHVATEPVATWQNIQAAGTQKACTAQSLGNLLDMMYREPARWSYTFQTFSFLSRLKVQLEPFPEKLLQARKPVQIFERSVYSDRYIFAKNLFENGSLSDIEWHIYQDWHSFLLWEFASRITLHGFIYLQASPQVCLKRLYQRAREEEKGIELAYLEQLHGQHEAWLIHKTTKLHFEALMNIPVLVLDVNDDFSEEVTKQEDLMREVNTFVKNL
Description: as §1, §2, §3

[3] = molecular target: T3, Pyridoxal Kinase (Homo sapiens, UniProt O00764); experiment: as above; type: binding; conditions: HEK 293 lysate
T3 construct: endogenous in cells; host or cells: HEK 293
T3 sequence (O00764 1-312): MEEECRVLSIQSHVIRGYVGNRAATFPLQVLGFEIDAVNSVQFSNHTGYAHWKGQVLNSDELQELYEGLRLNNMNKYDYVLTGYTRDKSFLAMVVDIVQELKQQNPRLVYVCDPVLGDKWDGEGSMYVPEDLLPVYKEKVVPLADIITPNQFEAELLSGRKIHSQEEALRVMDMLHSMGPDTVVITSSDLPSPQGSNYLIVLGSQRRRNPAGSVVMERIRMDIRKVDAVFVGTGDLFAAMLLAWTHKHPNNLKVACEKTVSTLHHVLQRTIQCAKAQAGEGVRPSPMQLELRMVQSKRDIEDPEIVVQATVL
Description: as §1, §2, §3

[4] = system: Inosine monophosphate dehydrogenase; experiment: as above; type: binding, human; conditions: HEK 293 lysate
Description: as §1, §2, §3

[5] = molecular target: T4, Pterin-4-alpha-carbinolamine dehydrogenase (PCD) (Homo sapiens, UniProt P61457); experiment: as above; type: binding; conditions: HEK 293 lysate
T4 construct: endogenous in cells; host or cells: HEK 293
T4 sequence (P61457 1-104): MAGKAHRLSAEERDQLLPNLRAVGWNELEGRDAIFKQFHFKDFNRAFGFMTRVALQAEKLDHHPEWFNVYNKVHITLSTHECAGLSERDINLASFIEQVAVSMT
Description: as §1, §2, §3

[6] = system: Glycogen Phosphorylase; experiment: as above; type: binding, human; conditions: HEK 293 lysate
Description: as §1, §2, §3

[7] = molecular target: T5, Deoxycytidine Kinase (Homo sapiens, UniProt P27707); experiment: as above; type: binding; conditions: HEK 293 lysate
T5 construct: endogenous in cells; host or cells: HEK 293
Description: as §1, §2, §3

[8] = molecular target: T6, Nudix 1 (Homo sapiens, UniProt P36639); experiment: as above; type: binding; conditions: HEK 293 lysate
T6 construct: endogenous in cells; host or cells: HEK 293
Description: as §1, §2, §3

[9] = molecular target: T7, Nudix 5 (Homo sapiens, UniProt Q9UKK9); experiment: as above; type: binding; conditions: HEK 293 lysate
T7 construct: endogenous in cells; host or cells: HEK 293
Description: as §1, §2, §3

[10] = molecular target: T8, Divalent Cation tolerant protein CUTA (Homo sapiens, UniProt O60888); experiment: as above; type: binding; conditions: HEK 293 lysate
T8 construct: endogenous in cells; host or cells: HEK 293
T8 sequence (O60888 33-179): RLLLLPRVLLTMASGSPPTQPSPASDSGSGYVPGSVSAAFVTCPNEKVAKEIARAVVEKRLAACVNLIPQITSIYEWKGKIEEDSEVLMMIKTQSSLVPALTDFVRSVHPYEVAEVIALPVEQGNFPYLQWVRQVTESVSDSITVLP
Description: as §1, §2, §3

[11] = system: purine de novo synthesis in leukemia cells; conditions: on treatment with Methotrexate; cited from earlier work
[12] = molecular target: T9, muscle glycogen phosphorylase b (Homo sapiens, UniProt P11217); conditions: cited from earlier work
T9 sequence (P11217 1-842): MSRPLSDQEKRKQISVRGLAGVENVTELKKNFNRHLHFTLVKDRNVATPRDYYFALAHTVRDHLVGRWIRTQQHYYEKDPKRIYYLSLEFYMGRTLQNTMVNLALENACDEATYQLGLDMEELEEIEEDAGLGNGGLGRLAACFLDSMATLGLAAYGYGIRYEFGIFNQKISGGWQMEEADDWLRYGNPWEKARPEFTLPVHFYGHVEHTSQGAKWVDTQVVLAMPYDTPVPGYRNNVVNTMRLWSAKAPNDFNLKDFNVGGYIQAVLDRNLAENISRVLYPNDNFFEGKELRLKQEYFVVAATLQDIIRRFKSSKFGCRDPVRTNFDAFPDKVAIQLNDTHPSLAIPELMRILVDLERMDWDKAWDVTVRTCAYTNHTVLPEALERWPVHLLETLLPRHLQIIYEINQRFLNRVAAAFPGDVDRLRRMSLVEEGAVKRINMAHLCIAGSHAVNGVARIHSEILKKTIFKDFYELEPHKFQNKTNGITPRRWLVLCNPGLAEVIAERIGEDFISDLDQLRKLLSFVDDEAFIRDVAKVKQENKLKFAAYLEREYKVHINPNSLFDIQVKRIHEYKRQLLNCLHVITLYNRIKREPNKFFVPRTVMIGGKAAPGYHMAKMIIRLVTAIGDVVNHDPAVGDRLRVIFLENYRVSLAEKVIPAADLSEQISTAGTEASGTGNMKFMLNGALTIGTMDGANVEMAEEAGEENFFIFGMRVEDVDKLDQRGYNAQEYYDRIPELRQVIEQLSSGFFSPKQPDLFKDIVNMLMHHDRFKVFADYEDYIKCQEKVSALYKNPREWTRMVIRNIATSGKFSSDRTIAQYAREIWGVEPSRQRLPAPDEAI

[13] = system: intracellular levels of PRPP; conditions: reversible upon treatment with hypoxanthine; cited from earlier work

T5 sequence (P27707 whole entry): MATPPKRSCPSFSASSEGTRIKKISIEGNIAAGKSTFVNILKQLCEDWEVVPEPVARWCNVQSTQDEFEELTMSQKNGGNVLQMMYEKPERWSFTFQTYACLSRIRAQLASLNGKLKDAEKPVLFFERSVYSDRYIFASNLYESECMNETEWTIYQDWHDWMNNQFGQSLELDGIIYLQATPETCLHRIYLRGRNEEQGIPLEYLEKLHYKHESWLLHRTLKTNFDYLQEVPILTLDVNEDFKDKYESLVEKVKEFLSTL

Structure (SMILES): CN(Cc1cnc2nc(N)nc(N)c2n1)c1ccc(C(=O)N[C@@H](CCC(=O)O)C(=O)O)cc1 [Methotrexate]
- Protein identified by Mass Spec.; New MTX interactor [1]: identified in the pull down in lane 9
- Protein identified by Mass Spec.; New MTX interactor ([1]; listed as MTX): ✓
- Protein identified by Mass Spec.; New MTX interactor [2]: binds to Methotrexate through a direct interaction
- Protein identified by Mass Spec.; New MTX interactor ([2]; listed as MTX): ✓
- Protein identified by Mass Spec.; New MTX interactor [3]: direct binder of Methotrexate
- Protein identified by Mass Spec.; New MTX interactor ([3]; listed as MTX): ✓
- Protein identified by Mass Spec.; New MTX interactor [4]: binds this enzyme directly
- Protein identified by Mass Spec.; New MTX interactor ([4]; listed as MTX): ✓
- Protein identified by Mass Spec.; New MTX interactor [5]: binds directly to Methotrexate
- Protein identified by Mass Spec.; New MTX interactor ([5]; listed as MTX): ✓
- Protein identified by Mass Spec.; New MTX interactor [6]: direct binder of Methotrexate
- Protein identified by Mass Spec.; New MTX interactor ([6]; listed as MTX): ✓
- Association with the Methotrexate matrix [7]: indirect interaction with Methotrexate
- Association with the Methotrexate matrix [8]: consistently found
- Association with the Methotrexate matrix [9]: consistently found; also recorded: direct interactions with the Methotrexate probe
- Association with the Methotrexate matrix [10]: consistently found; also recorded: pulled down consistently
- accumulation of 5-phosphoribosyl-1-pyrophosphate [11]: 3-4 fold
- de novo purine pathway [11]: completely blocked
- inhibition of muscle glycogen phosphorylase b [12]: reversible inhibitors
- effect on levels of PRPP [13]: raising the intracellular levels of PRPP; also recorded: increase on levels of PRPP
